Data from patent publication US20140296146A1, “Thermostable Inhibitors of Activation of the Blood Clotting System Through Contact with Foreign Surfaces” (Synapse B.V., priority 2011, published 2014).
Where two headings read alike, the source gives them in different places. Where a SMILES comes first, the peptide text is derived from it. Bridges are numbered along the chain shown (N, C = ends).

Columns and labels:
h-FXIIa [1] = target: T1, h-FXIIa (Homo sapiens, UniProt P00748); test: Effect of inhibitors on hydrolysis of S2302 by h-FXIIa; type: biochemical
T1 construct: purchased Enzyme Research Laboratories FXIIa 1212A
T1 sequence (P00748 373-615 limits assumed): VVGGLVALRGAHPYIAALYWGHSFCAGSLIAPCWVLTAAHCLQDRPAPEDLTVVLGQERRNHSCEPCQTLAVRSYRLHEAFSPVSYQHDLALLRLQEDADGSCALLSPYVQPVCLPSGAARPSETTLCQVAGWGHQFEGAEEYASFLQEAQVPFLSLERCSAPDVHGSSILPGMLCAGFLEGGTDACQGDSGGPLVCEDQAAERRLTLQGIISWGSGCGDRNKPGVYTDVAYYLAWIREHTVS
T1 sequence (P00748 20-372 partner limits assumed): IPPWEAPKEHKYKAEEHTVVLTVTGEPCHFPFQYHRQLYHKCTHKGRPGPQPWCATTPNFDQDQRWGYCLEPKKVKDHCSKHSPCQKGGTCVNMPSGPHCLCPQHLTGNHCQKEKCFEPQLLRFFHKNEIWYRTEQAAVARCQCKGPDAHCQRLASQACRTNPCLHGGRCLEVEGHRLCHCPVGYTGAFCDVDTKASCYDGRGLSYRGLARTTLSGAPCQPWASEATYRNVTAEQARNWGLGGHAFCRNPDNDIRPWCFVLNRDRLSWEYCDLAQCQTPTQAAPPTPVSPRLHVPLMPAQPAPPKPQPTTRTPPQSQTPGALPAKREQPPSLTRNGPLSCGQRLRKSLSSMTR
Description: (§1) Materials • S2302 From Chromogenic, lot # N0398718 SEQ0860, exp. date 2012-07. Water added on 7 Oct. […] On 3 Aug. […] Product code FXIIa 1212A, lot #FXIIa 2520PL. Bottle with 0.5 mg was reconstituted with 370 μl pure water. […] Buffer 4 mM NaAc, 150 mM NaCl (pH 5.3). Preparation was divided into 20 μl amounts and frozen at −80° C. • Hepes735 140 mM NaCl, 20 mM Hepes, 0.02% NaN3 (pH 7.35). • BSA5 Hepes735+5 mg/ml BSA. • CTI Prepared on 17 Dec. 2004, 0.141 mg/ml, i.e. 0.141/12028=11.7*10^−6 M (11.7 μM). One portion was thawed and divided into 3 parts. Part 1 was frozen at −80° C.; part 2 was kept at RT; and part 3 was incubated 30 min at 95° C. and then kept at RT.
(§2) Stock FXIIa was diluted 700× in BSA5. The inhibitor was diluted in BSA5 as indicated. Wells contained 70 μl diluted FXIIa (5 nM final), 70 μl inhibitor and 20 μl S2302 (475 or 462.5 μM final). The reaction was started after 5 min heating on the heating plate with S2302. Filters 405 nm and 490 nm reference. Found mΔA/min was multiplied by 2.14 to get the figure for a 1 cm path.
The residual activity (V) was fitted against the PTI concentration with equation:
(§3) V=(E+(sqrt(Ê2+2*E*(Ki−I)+Î2+2*I*Ki+Kî2)−E−I−Ki)/2)*kcat*S/(Km+S)
(§4) in which E=[FXIIa], Ki is the dissociation constant, I=[Inhibitor], kcat and Km are Michaelis constants and S=[S2302].

h-FXIIa [2] = target: T1, h-FXIIa; test: Stability of CTI, PTI and TICA at RT and at 95° C., read as inhibition of h-FXIIa; type: physicochemical
Description: as §1, with “Part 1 was frozen at −80° C.; part 2 was kept at RT; and part 3 was incubated 30 min at 95° C. and then kept at RT.” left out
as §2, with “ΔmA/min” for “mΔA/min”
The residual activity (V) was fitted against the inhibitor concentration with equation:
as §3, §4
To calculate the concentration of I the equation I=x·(x−E−Ki)/(x−E) was used. In this equation is I the calculated inhibitor concentration, x=the residual activity of FXIIa (free FXIIa), E the total FXIIa concentration (=9.33 nM), and Ki the dissociation or inhibitor constant.

[3] = Ki, Table 2, inhibitory activity of different polypeptides
[4] = ki F.XIIa (ng/ml), Before heating

Compound	Ki (h-FXIIa [1]) [nM]	Ki (h-FXIIa [1]; [3]) [nM]	Ki (h-FXIIa [1]; [4]) [nM]	Res. Act. (%) (h-FXIIa [2]; inhibitor 30 min 95° C.)	Res. Act. (%) (h-FXIIa [2]; inhibitor at RT during 72 hrs)	Res. Act. (%) (h-FXIIa [2]; inhibitor kept at −80° C.)
CC[C@H](C)[C@@H]1NC(=O)[C@H](CCCNC(=N)N)NC(=O)[C@@H]2CCCN2C(=O)[C@@H](NC(=O)[C@@H](NC(=O)[C@H](CCCNC(=N)N)NC(=O)[C@H](C)NC(=O)[C@H](C)NC(=O)[C@H](C)N)C(C)C)CSSC[C@@H]2NC(=O)[C@H](CCC(=O)O)NC(=O)[C@H](C)NC(=O)[C@H](CC(C)C)NC(=O)[C@@H]3CSSC[C@@H](C(=O)NCC(=O)O)NC(=O)[C@H](Cc4ccc(O)cc4)NC(=O)CNC(=O)[C@H](Cc4c[nH]cn4)NC(=O)[C@H](CCC(=O)O)NC(=O)[C@H](CC(C)C)NC(=O)[C@H](CSSC[C@H](NC(=O)[C@H](CCCCN)NC(=O)[C@H](CCSC)NC(=O)[C@H](CC(C)C)NC1=O)C(=O)N[C@@H](CCCCN)C(=O)N[C@@H](CCCCN)C(=O)N[C@@H](CC(=O)O)C(=O)N[C@@H](CO)C(=O)N[C@@H](CC(=O)O)C(=O)N3)NC(=O)[C@H](C(C)C)NC2=O [AAA-TICA1] (H-AAARVCPRILMKCKKDSDCLAECVCLEHGYCG-OH; disulfide 6-23, 13-25, 19-31)	104					
CC[C@H](C)[C@@H]1NC(=O)[C@H](CCCNC(=N)N)NC(=O)[C@@H]2CCCN2C(=O)[C@@H](NC(=O)[C@@H](NC(=O)[C@@H](N)CCCNC(=N)N)C(C)C)CSSC[C@@H]2NC(=O)[C@H](CCC(=O)O)NC(=O)[C@H](C)NC(=O)[C@H](CC(C)C)NC(=O)[C@@H]3CSSC[C@@H](C(=O)NCC(=O)N[C@@H](C)C(=O)N[C@@H](C)C(=O)N[C@@H](C)C(=O)O)NC(=O)[C@H](Cc4ccc(O)cc4)NC(=O)CNC(=O)[C@H](Cc4c[nH]cn4)NC(=O)[C@H](CCC(=O)O)NC(=O)[C@H](CC(C)C)NC(=O)[C@H](CSSC[C@H](NC(=O)[C@H](CCCCN)NC(=O)[C@H](CCSC)NC(=O)[C@H](CC(C)C)NC1=O)C(=O)N[C@@H](CCCCN)C(=O)N[C@@H](CCCCN)C(=O)N[C@@H](CC(=O)O)C(=O)N[C@@H](CO)C(=O)N[C@@H](CC(=O)O)C(=O)N3)NC(=O)[C@H](C(C)C)NC2=O [TICA1-AAA] (H-RVCPRILMKCKKDSDCLAECVCLEHGYCGAAA-OH; disulfide 3-20, 10-22, 16-28)	377					
CC[C@H](C)[C@@H]1NC(=O)[C@H](CCCNC(=N)N)NC(=O)[C@@H]2CCCN2C(=O)[C@@H](NC(=O)[C@@H](NC(=O)[C@H](CCCNC(=N)N)NC(=O)[C@H](CCC(=O)O)NC(=O)[C@H](CCC(=O)O)NC(=O)[C@@H](N)Cc2c[nH]cn2)C(C)C)CSSC[C@@H]2NC(=O)[C@H](CCC(=O)O)NC(=O)[C@H](C)NC(=O)[C@H](CC(C)C)NC(=O)[C@@H]3CSSC[C@@H](C(=O)NCC(=O)O)NC(=O)[C@H](Cc4ccc(O)cc4)NC(=O)CNC(=O)[C@H](Cc4c[nH]cn4)NC(=O)[C@H](CCC(=O)O)NC(=O)[C@H](CC(C)C)NC(=O)[C@H](CSSC[C@H](NC(=O)[C@H](CCCCN)NC(=O)[C@H](CCSC)NC(=O)[C@H](CC(C)C)NC1=O)C(=O)N[C@@H](CCCCN)C(=O)N[C@@H](CCCCN)C(=O)N[C@@H](CC(=O)O)C(=O)N[C@@H](CO)C(=O)N[C@@H](CC(=O)O)C(=O)N3)NC(=O)[C@H](C(C)C)NC2=O [TICA3] (H-HEERVCPRILMKCKKDSDCLAECVCLEHGYCG-OH; disulfide 6-23, 13-25, 19-31 (inferred); N-terminus and C-terminus assumed)		3090	2760	103	101	100
CC[C@H](C)[C@@H]1NC(=O)[C@@H]2CSSC[C@H](NC(=O)[C@@H](NC(=O)[C@H](CCCNC(=N)N)NC(=O)[C@H](CCC(=O)O)NC(=O)[C@H](CCC(=O)O)NC(=O)[C@@H](N)Cc3c[nH]cn3)C(C)C)C(=O)N3CCC[C@H]3C(=O)N[C@@H](CCCCN)C(=O)N[C@@H]([C@@H](C)CC)C(=O)N[C@@H](CC(C)C)C(=O)N[C@@H](CCSC)C(=O)N[C@@H](CCC(=O)O)C(=O)N[C@H]3CSSC[C@H](NC1=O)C(=O)N[C@@H](CC(C)C)C(=O)N[C@@H](CCC(=O)O)C(=O)N[C@@H](Cc1c[nH]cn1)C(=O)NCC(=O)N[C@@H](Cc1ccc(O)cc1)C(=O)N[C@H](C(=O)NCC(=O)O)CSSC[C@H](NC(=O)[C@H](CC(=O)O)NC(=O)[C@H](CO)NC(=O)[C@H](CC(=O)O)NC(=O)[C@H](CCCCN)NC(=O)[C@H](CCCCN)NC3=O)C(=O)N[C@@H](CC(C)C)C(=O)N[C@@H](C)C(=O)N[C@@H](CCC(=O)O)C(=O)N2 [TICA5] (H-HEERVCPKILMECKKDSDCLAECICLEHGYCG-OH; disulfide 6-23, 13-25, 19-31 (inferred); N-terminus and C-terminus assumed)		171000	152000	105	96	100
